Data as given in the NIST ThermoML archive (doi:10.1016/j.fluid.2010.03.004).

Assay: xn = mol fraction of the nth substance listed
Conditions: Liquid, Vibrating tube method

CCCO [propan-1-ol] + O=C=O
Conditions | mass density [kg/m3]
313.24 K, x2 = 0.202 | 807
313.24 K, x2 = 0.2572 | 812.6
313.24 K, x2 = 0.3141 | 817.6
313.24 K, x2 = 0.4054 | 823.3
313.24 K, x2 = 0.4405 | 824.4
313.24 K, x2 = 0.5256 | 826.3
313.24 K, x2 = 0.5773 | 825.7
313.24 K, x2 = 0.6774 | 822
313.24 K, x2 = 0.7843 | 786.8
363.17 K, x2 = 0.1483 | 752
363.17 K, x2 = 0.2294 | 754.9
363.17 K, x2 = 0.3137 | 754.8
363.17 K, x2 = 0.4007 | 753.6
363.17 K, x2 = 0.4863 | 749.7
363.17 K, x2 = 0.6808 | 680.6
363.17 K, x2 = 0.7308 | 638.5

CC(C)O [propan-2-ol] + O=C=O
Conditions | mass density [kg/m3]
313.22 K, x2 = 0.1267 | 783.1
313.22 K, x2 = 0.2066 | 789.6
313.22 K, x2 = 0.3029 | 799.3
313.22 K, x2 = 0.3845 | 803.6
313.22 K, x2 = 0.4501 | 806.7
313.22 K, x2 = 0.554 | 805.4
313.22 K, x2 = 0.6472 | 794.9
313.22 K, x2 = 0.7539 | 783.1
313.22 K, x2 = 0.902 | 703.7
333.03 K, x2 = 0.137 | 761
333.03 K, x2 = 0.2077 | 762.7
333.03 K, x2 = 0.3001 | 765
333.03 K, x2 = 0.4023 | 767.5
333.03 K, x2 = 0.4645 | 768.5
333.03 K, x2 = 0.6377 | 770.7
333.03 K, x2 = 0.7582 | 771.4
333.03 K, x2 = 0.8297 | 771.4
348.25 K, x2 = 0.0736 | 741.2
348.25 K, x2 = 0.1432 | 743.9
348.25 K, x2 = 0.2469 | 746.5
348.25 K, x2 = 0.3234 | 748.6
348.25 K, x2 = 0.4042 | 750.9
348.25 K, x2 = 0.5132 | 752.9
348.25 K, x2 = 0.5658 | 753.6
348.25 K, x2 = 0.7177 | 745.3
348.25 K, x2 = 0.755 | 646.5
348.25 K, x2 = 0.8241 | 568
362.92 K, x2 = 0.1016 | 641.7
362.92 K, x2 = 0.1668 | 690.6
362.92 K, x2 = 0.2312 | 726.4
362.92 K, x2 = 0.3079 | 728.3
362.92 K, x2 = 0.3719 | 728.7
362.92 K, x2 = 0.4681 | 726.5
362.92 K, x2 = 0.5653 | 704.5
362.92 K, x2 = 0.6285 | 671.6
362.92 K, x2 = 0.7165 | 590.4
